# PubChem BioAssay AID1259407 (Chemical Carcinogenesis Research Information System (CCRIS), 2018)
# Calls of active or inactive are those of the source. How the calls were made is not given here.
# Test system: CCRIS mutagenicity, Ames/micronucleus/aberration tests
# Assay: CCRIS mutagenicity studies
compound,measurement,setting,value
[Cl][Pd][Cl],mutagenic call,"Test System: AMES SALMONELLA TYPHIMURIUM, Strain/Indicator: TA98, Metabolic Activation: HAMSTER, LIVER, S-9, AROCLOR 1254 (10%), Method: PREINCUBATION",inactive; negative
same,mutagenic call,"Test System: AMES SALMONELLA TYPHIMURIUM, Strain/Indicator: TA98, Metabolic Activation: NONE, Method: PREINCUBATION",inactive; negative
same,mutagenic call,"Test System: AMES SALMONELLA TYPHIMURIUM, Strain/Indicator: TA98, Metabolic Activation: RAT, LIVER, S-9, AROCLOR 1254 (10%), Method: PREINCUBATION",inactive; negative
same,mutagenic call,"Test System: AMES SALMONELLA TYPHIMURIUM, Strain/Indicator: TA100, Metabolic Activation: HAMSTER, LIVER, S-9, AROCLOR 1254 (10%), Method: PREINCUBATION",inactive; negative
same,mutagenic call,"Test System: AMES SALMONELLA TYPHIMURIUM, Strain/Indicator: TA100, Metabolic Activation: NONE, Method: PREINCUBATION",inactive; negative
same,mutagenic call,"Test System: AMES SALMONELLA TYPHIMURIUM, Strain/Indicator: TA100, Metabolic Activation: RAT, LIVER, S-9, AROCLOR 1254 (10%), Method: PREINCUBATION",inactive; negative
same,mutagenic call,"Test System: AMES SALMONELLA TYPHIMURIUM, Strain/Indicator: TA1535, Metabolic Activation: HAMSTER, LIVER, S-9, AROCLOR 1254 (10%), Method: PREINCUBATION",inactive; negative
same,mutagenic call,"Test System: AMES SALMONELLA TYPHIMURIUM, Strain/Indicator: TA1535, Metabolic Activation: NONE, Method: PREINCUBATION",inactive; negative
same,mutagenic call,"Test System: AMES SALMONELLA TYPHIMURIUM, Strain/Indicator: TA1535, Metabolic Activation: RAT, LIVER, S-9, AROCLOR 1254 (10%), Method: PREINCUBATION",inactive; negative
same,mutagenic call,"Test System: AMES SALMONELLA TYPHIMURIUM, Strain/Indicator: TA1537, Metabolic Activation: HAMSTER, LIVER, S-9, AROCLOR 1254 (10%), Method: PREINCUBATION",inactive; negative
same,mutagenic call,"Test System: AMES SALMONELLA TYPHIMURIUM, Strain/Indicator: TA1537, Metabolic Activation: NONE, Method: PREINCUBATION",inactive; negative
same,mutagenic call,"Test System: AMES SALMONELLA TYPHIMURIUM, Strain/Indicator: TA1537, Metabolic Activation: RAT, LIVER, S-9, AROCLOR 1254 (10%), Method: PREINCUBATION",inactive; negative
O=C([O-])c1cccnc1Nc1cccc(C(F)(F)F)c1.O=C([O-])c1cccnc1Nc1cccc(C(F)(F)F)c1.OCc1cccnc1.OCc1cccnc1.[Cu+2],mutagenic call,"Test System: AMES SALMONELLA TYPHIMURIUM, Strain/Indicator: TA97, Metabolic Activation: MOUSE, LIVER, S-9, Method: STANDARD PLATE",inactive; negative
same,mutagenic call,"Test System: AMES SALMONELLA TYPHIMURIUM, Strain/Indicator: TA97, Metabolic Activation: NONE, Method: STANDARD PLATE",inactive; negative
same,mutagenic call,"Test System: AMES SALMONELLA TYPHIMURIUM, Strain/Indicator: TA97, Metabolic Activation: RAT LIVER S-9, DELOR 103, Method: STANDARD PLATE",inactive; negative
same,mutagenic call,"Test System: AMES SALMONELLA TYPHIMURIUM, Strain/Indicator: TA98, Metabolic Activation: MOUSE, LIVER, S-9, Method: STANDARD PLATE",inactive; negative
same,mutagenic call,"Test System: AMES SALMONELLA TYPHIMURIUM, Strain/Indicator: TA98, Metabolic Activation: NONE, Method: STANDARD PLATE",inactive; negative
same,mutagenic call,"Test System: AMES SALMONELLA TYPHIMURIUM, Strain/Indicator: TA98, Metabolic Activation: RAT LIVER S-9, DELOR 103, Method: STANDARD PLATE",inactive; negative
same,mutagenic call,"Test System: AMES SALMONELLA TYPHIMURIUM, Strain/Indicator: TA100, Metabolic Activation: MOUSE, LIVER, S-9, Method: STANDARD PLATE",inactive; negative
same,mutagenic call,"Test System: AMES SALMONELLA TYPHIMURIUM, Strain/Indicator: TA100, Metabolic Activation: NONE, Method: STANDARD PLATE",inactive; negative
same,mutagenic call,"Test System: AMES SALMONELLA TYPHIMURIUM, Strain/Indicator: TA100, Metabolic Activation: RAT LIVER S-9, DELOR 103, Method: STANDARD PLATE",inactive; negative
same,mutagenic call,"Test System: AMES SALMONELLA TYPHIMURIUM, Strain/Indicator: TA102, Metabolic Activation: MOUSE, LIVER, S-9, Method: STANDARD PLATE",inactive; negative
same,mutagenic call,"Test System: AMES SALMONELLA TYPHIMURIUM, Strain/Indicator: TA102, Metabolic Activation: NONE, Method: STANDARD PLATE",inactive; negative
same,mutagenic call,"Test System: AMES SALMONELLA TYPHIMURIUM, Strain/Indicator: TA102, Metabolic Activation: RAT LIVER S-9, DELOR 103, Method: STANDARD PLATE",inactive; negative
CN(N=O)c1ccccc1,mutagenic call,"Test System: AMES SALMONELLA TYPHIMURIUM, Strain/Indicator: HISG428, Metabolic Activation: RAT, LIVER, S-9, AROCLOR 1254, Method: PREINCUBATION",inactive; negative
same,mutagenic call,"Test System: AMES SALMONELLA TYPHIMURIUM, Strain/Indicator: TA100, Metabolic Activation: RAT, LIVER, S-9, AROCLOR 1254, Method: PREINCUBATION",active; positive
same,mutagenic call,"Test System: AMES SALMONELLA TYPHIMURIUM, Strain/Indicator: TA104, Metabolic Activation: RAT, LIVER, S-9, AROCLOR 1254, Method: PREINCUBATION",active; positive
same,mutagenic call,"Test System: AMES SALMONELLA TYPHIMURIUM, Strain/Indicator: TA1537, Metabolic Activation: RAT, LIVER, S-9, PHENOBARBITAL, Method: STANDARD PLATE",inactive; negative
same,mutagenic call,"Test System: AMES SALMONELLA TYPHIMURIUM, Strain/Indicator: TA1537, Metabolic Activation: RAT, LIVER, S-9, PYRAZOLE, Method: STANDARD PLATE",active; positive
same,mutagenic call,"Test System: AMES SALMONELLA TYPHIMURIUM, Strain/Indicator: TA1537, Metabolic Activation: RAT, LIVER, S-9, Method: LIQUID INCUBATION",active; positive
same,mutagenic call,"Test System: AMES SALMONELLA TYPHIMURIUM, Strain/Indicator: TA2638, Metabolic Activation: RAT, LIVER, S-9, AROCLOR 1254, Method: PREINCUBATION",active; positive
same,mutagenic call,"Test System: AMES SALMONELLA TYPHIMURIUM, Strain/Indicator: TA2659, Metabolic Activation: RAT, LIVER, S-9, AROCLOR 1254, Method: PREINCUBATION",inactive; negative
same,mutagenic call,"Test System: AMES SALMONELLA TYPHIMURIUM, Strain/Indicator: YG7108-2A6-OR, Metabolic Activation: NONE, Method: PREINCUBATION",active; positive
same,mutagenic call,"Test System: AMES SALMONELLA TYPHIMURIUM, Strain/Indicator: YG7108-2A6, Metabolic Activation: NONE, Method: PREINCUBATION",active; positive
same,mutagenic call,"Test System: AMES SALMONELLA TYPHIMURIUM, Strain/Indicator: YG7108-PCW, Metabolic Activation: NONE, Method: PREINCUBATION",inactive; negative
same,mutagenic call,"Test System: AMES SALMONELLA TYPHIMURIUM, Strain/Indicator: YG7108, Metabolic Activation: RAT LIVER S-9, PHENOBARBITAL AND 5,6-BENZOFLAVONE, Method: PREINCUBATION",inactive; negative
CC(=O)N(C)N=O,mutagenic call,"Test System: AMES SALMONELLA TYPHIMURIUM, Strain/Indicator: TA1535, Metabolic Activation: NONE, Method: STANDARD PLATE",active; positive
same,mutagenic call,"Test System: E. COLI, Strain/Indicator: WU3610, Metabolic Activation: NONE, Method: SUSPENSION/PLATE",active; positive
